Blank lines part the entries; values can stand above or below the compound they belong to.
Columns and labels:
diabetic patients [1] = assay: Cancer in patients during diabetes mellitus treatment (survey and case reports); type: in vivo, human; conditions: person
Excerpt: On the other hand, it is widely known that the insulin itself may increase the risk of the cancer and many cancer patients can be found in the patients of the diabetes mellitus.

[2] = confirmed by manufacturers; cited from earlier work
diabetic patients [3] = assay: Blood glucose of the patient (casual, postprandial, glycemic control); type: in vivo, human
diabetic patients [4] = assay: HbA1c (glycated hemoglobin) of the patient under the prescription; type: in vivo, human; conditions: person; May 17, 2016, only the new drug (DPP4 inhibitor), before metformin+BCAA
Excerpt: (1) Step to measure HbA1c and lactate levels in patients
(3) Step to measure changes in HbA1c and lactate levels after administration of the composition to the patient,

diabetic patients [5] = assay: Side effects and clinical course, opinion of the doctor; type: in vivo, human; conditions: person; 4 mg antihypertensive diuretic
Protocol: For each prescription example, the glycemic status of the patient that is dependent on the administered active components and the component amount is measured using HbA1c (glycated hemoglobin) along with changes in the lactic acid value, and opinion of the doctor is recorded together with the change in the values.

Cancer developed during diabetes mellitus treatment (diabetic patients [1]; Case (10)): a bowel cancer was developed
Structure (SMILES): N#C[C@@H]1CCCN1C(=O)CNC12CC3CC(CC(O)(C3)C1)C2 [Equa]

Structure (SMILES): O=C(O)[C@H](CC(=O)N1C[C@H]2CCCC[C@H]2C1)Cc1ccccc1 [GLUFAST]
Lactic acidosis [2]: do not cause lactic acidosis

Cancer developed during diabetes mellitus treatment (diabetic patients [1]; Case (13), treated from 2017, January 2019): A bone cancer was found
Structure (SMILES): N[C@@H](CC(=O)N1CCn2c(nnc2C(F)(F)F)C1)Cc1cc(F)c(F)cc1F [JANUVIA, sitagliptin phosphate hydrate]

Cancer developed during diabetes mellitus treatment (diabetic patients [1]; Case (15), dialysis, used until October 2017, April 2019): A lung cancer was developed
Structure (SMILES): Cc1cc(N2CCN([C@@H]3CN[C@H](C(=O)N4CCSC4)C3)CC2)n(-c2ccccc2)n1 [TENELIA]

Cancer developed during diabetes mellitus treatment (diabetic patients [1]; Case (9), used until October 2018): A vesical cancer was developed
Cancer developed during diabetes mellitus treatment (diabetic patients [1]; Case (11), 5 mg, March 2019): A liver cancer was developed
Structure (SMILES): CC#CCn1c(N2CCC[C@@H](N)C2)nc2c1c(=O)n(Cc1nc(C)c3ccccc3n1)c(=O)n2C [Trazenta]

Structure (SMILES): Cn1c(=O)cc(N2CCC[C@@H](N)C2)n(Cc2cc(F)ccc2C#N)c1=O [Zafatek]
postprandial blood glucose (diabetic patients [3]; person, May 9, 2016, before metformin+BCAA was started): 246 mg/dL
HbA1c (diabetic patients [4]): 5.6%

Structure (SMILES): NS(=O)(=O)c1cc2c(cc1Cl)NC(C(Cl)Cl)NS2(=O)=O (stereo not drawn) [fluitran]
Effect on the condition of diabetes mellitus (diabetic patients [5]): worsened the condition of diabetes mellitus

Structure (SMILES): CN(C)C(=N)NC(=N)N.Cl [metformin, metformin hydrochloride]
Blood sugar level (diabetic patients [3]; Case (19), metformin 250 mg after HD, as of August 2020): stable
Lung cancer by PET and MRI (diabetic patients [1]; Case (19), metformin 250 mg after HD from May 2019, after radiation therapy, April 2020): reduction of lung cancer was maintained and there was no metastasis

Structure (SMILES): CC(C)[C@H]1CC[C@H](C(=O)N[C@H](Cc2ccccc2)C(=O)O)CC1 [nateglinide]
Lactic acidosis [2]: do not cause lactic acidosis

Reference: patent publication US11701336B2, “Method of determining composition effective for treating diabetes” (priority 2015, dated 2023)
